Consider one compound from patent US9592223B2, “Small molecule inhibitors of MALT1” (Cornell University, priority 2012, dated 2017).

The nature of series [1]: Toxicity 1: increasing daily IP doses over 10 days. The format is in vivo, C57BL/6 mice. Particulars: daily IP 0.05 to 25 mg/kg over 10 days, cumulative 51.1 mg/kg. An excerpt:
Brain, heart, lung, liver, kidney, bowel, spleen, thymus and bone marrow tissues were examined. […] Myeloid to erythroid ratio was 4-5:1. Megakaryocytes were normal in number and distribution. There was no fibrosis nor increased number of blasts or lymphocytes. Complete peripheral blood counts, biochemistry and liver function tests were normal (Table 2).

The next series has as its target Caspase-3 (Homo sapiens, UniProt P42574). The experiment in a line: Caspase selectivity. The format is biochemical.
In a further series the test system is NF-κB reporter activity. The series can be described thus: NF-κB reporter assay in HBL-1 cells. The class given is cell-based, human. An excerpt: Antigen receptor-mediated NF-κB signaling partly depends on MALT1 activity (Ruefli-Brasse et al., 2003; Ruland et al., 2003). […] First, 293T cells were transfected with the NF-κB reporter vector (NF-κB)5-luc2CP-pGL4 (harboring 5 copies of the NF-κB consensus response element and a destabilized Firefly luciferase) and TK-pRL control together with plasmids expressing BCL10 and either MALT1^WT or MALT1^C464A. […] HBL-1 was transfected with the reporter construct (NF-κB)5-luc2CP-pGL4 and TK-pRL control.
Reporter assays were performed in 293T cells seeded at a density of 2×10^5 cells per well of a 12-well dish. 100 ng of (NF-κB)5-Luc2CP-pGL4 and 10 ng of TK-Renilla internal control plasmid were cotransfected along with 25 ng of the indicated plasmids (MIGR1-MALT1^WT or MIGR1-MALT1^C464A and pcDNA4-Flag-Bcl10) using Lipofectamine 2000 (Invitrogen). Lysates were submitted to dual luciferase assays following manufacturer's protocol (Promega). In HBL-1, 5 μg of (NF-κB)5-Luc2CP-pGL4 and 50 ng of TK-Renilla internal control plasmid per 5×10^6 cells were cotransfected using nucleofection (Amaxa, Lonza, Basel, Switzerland). Forty-eight hours after transfection, cells were plated at a density of 5×10^4 cells per well of a 24-well plate and treated as indicated. Lysates were submitted to dual luciferase assays following manufacturer's protocol (Promega).
A general note: A reporter such as luciferase makes a cellular process visible.

Another series concerns c-REL nuclear protein. The series can be described thus: c-REL immunofluorescence in paraffinized xenograft tumor sections. The format is in vivo, mice. Particulars: IP 25 mg/kg/day. An excerpt: Animals were sacrificed 24 hr after the fourteenth injection.
Paraffin-embedded tumor xenografts were sectioned, dewaxed and submitted to antigen retrieval. For IF-P, Alexa Fluor-488 conjugated secondary antibodies from Invitrogen where used and cell nuclei where counterstained with DAPI. Fluorescent images were taken using an Axiovert 200M fluorescent microscope (Carl Zeiss Inc., Thornwood, N.Y.). Oberkochen, Germany). For IHC, biotin-conjugated secondary antibodies where used. Then avidin/biotin peroxidase was applied to the slides (Vector Laboratories). Color was developed with diaminobenzoate chromogen peroxidase substrate (Vector) and counterstained with hematoxilin-eosyn. Pictures were obtained using an AxioCam (Carl Zeiss Inc.) camera attached to an AxioSkop II light microscope (Carl Zeiss Inc.). Samples were reviewed by a pathologist.

Another series relates to Caspase-3/7 activity. The experiment in a line: Caspase-3/7 activity or apoptosis in cell-based assays. The following applies: concentrations which suppress MALT1.
Series [2] deals with ABC-DLBCL cell lines HBL-1 and TMD8 vs GCB-DLBCL cell line OCI-Ly1. The series can be described thus: Cell proliferation of selected hits and analogs, ATP-based metabolic luminescent assay. Set-up: species or system human. An excerpt:
MALT1 activity plays an important role in selectively maintaining proliferation of ABC-DLBCL cell lines (Ngo et al., 2006). Accordingly ABC and GCB-DLBCL cell lines present differential sensitivity to MALT1 cleavage inhibition by the peptide Z-VRPR-FMK (Ferch et al., 2009; Hailfinger et al., 2009; Rebeaud et al., 2008). To determine whether candidate small molecules display a similar profile two ABC-DLBCL cell lines, HBL-1 and TMD8, and one GCB-DLBCL cell line, OCI-Ly1, were exposed to increasing concentrations of the nineteen selected molecules. Cell proliferation was measured 48 hr after exposure to a single dose of compound using an ATP-based metabolic luminescent assay (summarized in FIG. 1C).
A total of 704 analog compounds from available libraries with similarity score ≧70% (Tanimoto similarity functions) were screened by LZ-MALT1 fluorescence assay.
Cell proliferation was determined by ATP quantification using a luminescent method (CellTiter-Glo, Promega, Madison, Wis.) and Trypan blue dye-exclusion (Sigma, St. Louis, Mo.). […]
DLBCL cell lines were grown in exponential growth conditions during the 48 hr of treatment. Cell proliferation was determined by ATP quantification using a luminescent method (CellTiter-Glo, Promega, Madison, Wis.) and Trypan blue dye-exclusion (Sigma, St. Louis, Mo.). […]

The structures appear in SMILES notation.

Caspase-3, sequence (P42574 29-175 limits assumed, species assumed): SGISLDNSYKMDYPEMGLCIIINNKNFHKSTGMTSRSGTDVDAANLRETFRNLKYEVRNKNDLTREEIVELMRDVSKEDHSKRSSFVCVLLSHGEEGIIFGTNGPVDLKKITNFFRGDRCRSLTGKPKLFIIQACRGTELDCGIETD
Caspase-3, sequence (P42574 176-277 limits assumed, species assumed): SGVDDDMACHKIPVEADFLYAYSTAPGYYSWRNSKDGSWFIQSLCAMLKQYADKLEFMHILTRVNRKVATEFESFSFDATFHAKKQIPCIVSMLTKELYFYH

In the case of `COCCOc1nc(-c2ccc(Cl)c(Cl)c2)n(-c2ccc(NC(=O)CCl)cc2)n1` [MI-2], the “physical indicators of sickness” value in series [1] is “no evidence of lethargy, weight loss”. Besides, the “activity against Caspase-3” value on Caspase-3 is reported as “little activity”. Further, the “reduction in NF-κB reporter activity” value in the series on NF-κB reporter activity (HBL-1, 8 hr) stood at 20%; in the series on NF-κB reporter activity (HBL-1, 24 hr), 50%. Besides, the “c-REL nuclear protein in tumors” value with c-REL nuclear protein is recorded as “reduced c-REL nuclear protein”. The “inhibition of Caspase-3/7 activity or apoptosis” value in the series with Caspase-3/7 activity was “did not inhibit”. Besides, the GI25 concentrations result in series [2] (48 hr) is listed as “high nanomolar range”. The “suppression of cell proliferation, ABC-DLBCL vs GCB-DLBCL cell lines” value in series [2] (48 hr after a single dose, increasing concentrations) is recorded as “significant selective dose-dependent suppression of ABC-DLBCL cells”.
